In one assay the target is human orexin-2 receptor (Homo sapiens (Human), UniProt O43614). Briefly: radioligand binding assay, orexin-2 receptor (membranes from CHO cells). The note with it: CHO cell membranes, read-out: hOX2 hKi. As to the method:
The utility of the compounds in accordance with the present invention as orexin receptor OX1R and/or OX2R antagonists may be readily determined without undue experimentation by methodology well known in the art, including the “FLIPR Ca^2+ Flux Assay” (Okumura et al., Biochem. Biophys. Res. Comm. 280:976-981, 2001). In a typical experiment the OX1 and OX2 receptor antagonistic activity of the compounds of the present invention was determined in accordance with the following experimental method. For intracellular calcium measurements, Chinese hamster ovary (CHO) cells expressing the rat orexin-1 receptor or the human orexin-2 receptor, are grown in Iscove's modified DMEM containing 2 mM L-glutamine, […], 1% hypoxanthine-thymidine supplement, 100 U/ml penicillin, 100 ug/ml streptomycin and 10% heat-inactivated fetal calf serum (FCS). The cells are seeded at 20,000 cells/well into Becton-Dickinson black 384-well clear bottom sterile plates coated with poly-D-lysine. All reagents were from GIBCO-Invitrogen Corp. The seeded plates are incubated overnight at 37° C. and 5% CO2. Ala-6,12 human orexin-A as the agonist is prepared as a 1 mM stock solution in 1% bovine serum albumin (BSA) and diluted in assay buffer (HBSS containing 20 mM HEPES, 0.1% BSA and 2.5 mM probenecid, pH7.4) for use in the assay at a final concentration of 70 pM. Test compounds are prepared as 10 mM stock solution in DMSO, then diluted in 384-well plates, first in DMSO, then assay buffer. On the day of the assay, cells are washed 3 times with 100 ul assay buffer and then incubated for 60 min (37° C., 5% CO2) in 60 ul assay buffer containing 1 uM Fluo-4AM ester, 0.02% pluronic acid, and 1% BSA. The dye loading solution is then aspirated and cells are washed 3 times with 100 ul assay buffer. 30 ul of that same buffer is left in each well. Within the Fluorescent Imaging Plate Reader (FLIPR, Molecular Devices), test compounds are added to the plate in a volume of 25 ul, incubated for 5 min and finally 25 ul of agonist is added. Fluorescence is measured for each well at 1 second intervals for 5 minutes and the height of each fluorescence peak is compared to the height of the fluorescence peak induced by 70 pM Ala-6,12 orexin-A with buffer in place of antagonist. […] Alternatively, compound potency can be assessed by a radioligand binding assay (described in Bergman et. al. Bioorg. Med. Chem. Lett. 2008, 18, 1425-1430) in which the inhibition constant (Ki) is determined in membranes prepared from CHO cells expressing either the OX1 or OX2 receptor. The intrinsic orexin receptor antagonist activity of a compound which may be used in the present invention may be determined by these assays.

The target in a further assay is OX1 receptor (hOX1) (Homo sapiens, UniProt O43613). Briefly: radioligand binding assay, orexin-1 receptor (membranes from CHO cells). Conditions: CHO cell membranes, read-out: hOX1 hKi. As to the method: In a typical experiment the OX1 and OX2 receptor antagonistic activity of the compounds of the present invention was determined in accordance with the following experimental method. For intracellular calcium measurements, Chinese hamster ovary (CHO) cells expressing the rat orexin-1 receptor or the human orexin-2 receptor, are grown in Iscove's modified DMEM containing 2 mM L-glutamine, […], 1% hypoxanthine-thymidine supplement, 100 U/ml penicillin, 100 ug/ml streptomycin and 10% heat-inactivated fetal calf serum (FCS). The cells are seeded at 20,000 cells/well into Becton-Dickinson black 384-well clear bottom sterile plates coated with poly-D-lysine. All reagents were from GIBCO-Invitrogen Corp. The seeded plates are incubated overnight at 37° C. and 5% CO2. Ala-6,12 human orexin-A as the agonist is prepared as a 1 mM stock solution in 1% bovine serum albumin (BSA) and diluted in assay buffer (HBSS containing 20 mM HEPES, 0.1% BSA and 2.5 mM probenecid, pH7.4) for use in the assay at a final concentration of 70 pM. Test compounds are prepared as 10 mM stock solution in DMSO, then diluted in 384-well plates, first in DMSO, then assay buffer. On the day of the assay, cells are washed 3 times with 100 ul assay buffer and then incubated for 60 min (37° C., 5% CO2) in 60 ul assay buffer containing 1 uM Fluo-4AM ester, 0.02% pluronic acid, and 1% BSA. The dye loading solution is then aspirated and cells are washed 3 times with 100 ul assay buffer. 30 ul of that same buffer is left in each well. Within the Fluorescent Imaging Plate Reader (FLIPR, Molecular Devices), test compounds are added to the plate in a volume of 25 ul, incubated for 5 min and finally 25 ul of agonist is added. Fluorescence is measured for each well at 1 second intervals for 5 minutes and the height of each fluorescence peak is compared to the height of the fluorescence peak induced by 70 pM Ala-6,12 orexin-A with buffer in place of antagonist. […] Alternatively, compound potency can be assessed by a radioligand binding assay (described in Bergman et. al. Bioorg. Med. Chem. Lett. 2008, 18, 1425-1430) in which the inhibition constant (Ki) is determined in membranes prepared from CHO cells expressing either the OX1 or OX2 receptor. The intrinsic orexin receptor antagonist activity of a compound which may be used in the present invention may be determined by these assays.

Sequence of human orexin-2 receptor (O43614 whole entry): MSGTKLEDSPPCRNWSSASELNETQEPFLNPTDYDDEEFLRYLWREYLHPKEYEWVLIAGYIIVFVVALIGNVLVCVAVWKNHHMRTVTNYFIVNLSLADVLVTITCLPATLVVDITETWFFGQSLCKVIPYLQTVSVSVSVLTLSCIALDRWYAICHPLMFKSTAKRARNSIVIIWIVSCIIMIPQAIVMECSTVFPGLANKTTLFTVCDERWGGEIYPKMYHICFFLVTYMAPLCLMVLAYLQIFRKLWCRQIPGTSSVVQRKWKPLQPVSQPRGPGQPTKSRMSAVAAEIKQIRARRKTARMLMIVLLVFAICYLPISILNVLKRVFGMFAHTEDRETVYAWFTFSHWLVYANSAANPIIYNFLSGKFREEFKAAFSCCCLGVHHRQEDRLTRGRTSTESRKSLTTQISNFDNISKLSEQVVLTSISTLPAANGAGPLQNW

Turning to `Cc1nsc(-n2nccn2)c1C(=O)N1C[C@H](Oc2cc(C#N)ccn2)CC[C@H]1C` [Example 13, 2-{[(3R,6R)-6-methyl-1-{[3-methyl-5-(2H-1,2,3-triazol-2-yl)isothiazol-4-yl]carbonyl}piperidin-3-yl]oxy}pyridin-4-carbonitrile], the Ki on human orexin-2 receptor came to 0.137 µM; at OX1 receptor (hOX1), 34.5 µM.

On to `C[C@@H]1CC[C@@H](Oc2cc(C#N)ccn2)CN1C(=O)c1ccc(C(F)(F)F)nc1-n1nccn1` [Example 27, 2-{[(3R,6R)-6-methyl-1-{[2-(2H-1,2,3-triazol-2-yl)-6-(trifluoromethyl)pyridin-3-yl]carbonyl}piperidin-3-yl]oxy}pyridine-4-carbonitrile], for which the Ki turned out to be 1.04 µM on human orexin-2 receptor and 9.44 µM on OX1 receptor (hOX1).

For `C[C@@H]1CC[C@@H](Oc2cc(C#N)ccn2)CN1C(=O)c1ccc(OCF)cc1-n1nccn1` [Example 23, 2-{[(3R,6R)-1-{[4-(fluoromethoxy)-2-(2H-1,2,3-triazol-2-yl)phenyl]carbonyl}-6-methylpiperidin-3-yl]oxy}pyridine-4-carbonitrile], the figures for the Ki on human orexin-2 receptor and on OX1 receptor (hOX1) were 0.035 µM and 7.84 µM, respectively.

Turning to `C[C@@H]1CC[C@@H](Oc2cc(C#N)ccn2)CN1C(=O)c1ccc(OC(F)F)cc1-n1nccn1` [Example 24, 2-{[(3R,6R)-1-{[4-(difluoromethoxy)-2-(2H-1,2,3-triazol-2-yl)phenyl]carbonyl}-6-methylpiperidin-3-yl]oxy}pyridine-4-carbonitrile], the Ki on human orexin-2 receptor was found to be 0.079 µM; on OX1 receptor (hOX1), 23.9 µM.

Regarding `C[C@@H]1CC[C@@H](Oc2cc(C#N)ccn2)CN1C(=O)c1cc(C(N)=O)ccc1-n1nccn1` [Example 18, 3-({(2R,5R)-5-[(4-cyanopyridin-2-yl)oxy]-2-methylpiperidin-1-yl}carbonyl)-4-(2H-1,2,3-triazol-2-yl)benzamide], the Ki on human orexin-2 receptor was 0.134 µM; on OX1 receptor (hOX1), 1.29 µM.

In the case of `Cc1ccc(C(=O)N2C[C@H](Oc3cc(C#N)ccn3)CC[C@H]2C)c(-n2nccn2)n1` [Example 26, 2-{[(3R,6R)-6-methyl-1-{[6-methyl-2-(2H-1,2,3-triazol-2-yl)pyridin-3-yl]carbonyl}piperidin-3-yl]oxy}pyidine-4-carbonitrile], the Ki was found to be 0.162 µM on human orexin-2 receptor and 9.44 µM at OX1 receptor (hOX1).

For `C[C@@H]1CC[C@@H](Oc2cc(C#N)ccn2)CN1C(=O)c1nscc1-n1nccn1` [Example 11, 2-{[(3R,6R)-6-methyl-1-{[4-(2H-1,2,3-triazol-2-yl)isothiazol-3-yl]carbonyl}piperidin-3-yl]oxy}pyridine-4-carbonitrile], the Ki on human orexin-2 receptor was 0.094 µM; on OX1 receptor (hOX1), 13 µM.

With `C[C@@H]1CC[C@@H](Oc2cc(C#N)ccn2)CN1C(=O)c1ccc(OCCO)cc1-n1nccn1` [Example 25, 2-{[(3R,6R)-1-{[4-(2-hydroxyethoxy)-2-(2H-1,2,3-triazol-2-yl)phenyl]carbonyl}-6-methylpiperidin-3-yl]oxy}pyridine-4-carbonitrile], the Ki on human orexin-2 receptor is 10.9 µM; at OX1 receptor (hOX1), 9.44 µM.

Consider `COc1ccc(C(=O)N2C[C@H](Oc3cc(C#N)ccn3)CC[C@H]2C)c(Cl)n1` [Example 28, 2-({(3R,6R)-1-[(2-chloro-6-methoxypyridin-3-yl)carbonyl]-6-methylpiperidin-3-yl}oxy)pyridine-4-carbonitrile], for which the figures for the Ki at human orexin-2 receptor and at OX1 receptor (hOX1) were 0.618 µM and 2.82 µM, respectively.

Turning to `CCOc1ccc(C(=O)N2C[C@H](Oc3cc(C#N)ccn3)CC[C@H]2C)c(-n2nccn2)c1` [Example 21, 2-{[(3R,6R)-1-{[4-ethoxy-2-(2H-1,2,3-triazol-2-yl)phenyl]carbonyl}-6-methylpiperidin-3-yl]oxy}pyridine-4-carbonitrile], the Ki stood at 3.92 µM at human orexin-2 receptor and 23.2 µM on OX1 receptor (hOX1).

With `C[C@@H]1CC[C@@H](Oc2cc(C#N)ccn2)CN1C(=O)c1cc(Cl)ccc1-n1nccn1` [Example 16, 2-{[(3R,6R)-1-{[5-chloro-2-(2H-1,2,3-triazol-2-yl)phenyl]carbonyl}-6-methylpiperidin-3-yl]oxy}pyridine-4-carbonitrile], the Ki came out at 0.057 µM on human orexin-2 receptor and 5.64 µM at OX1 receptor (hOX1).

For the origin of these results see patent publication US20130102619A1, “2-PYRIDYLOXY-4-NITRILE OREXIN RECEPTOR ANTAGONISTS” (priority 2011, published 2013).
